Results reported in US8178530B2, “Imidazolopyrazine compounds useful for the treatment of degenerative and inflammatory diseases” (Janssen Pharmaceutica NV, priority 2006, dated 2012).

Columns and labels:
[1] = tested on: MMP1 expression by SFs; assay: 'MMP assay': MMP1 expression by 'complex trigger' activated synovial fibroblasts (MMP1 ELISA); format: cell-based, human; settings: Homo sapiens, Fibroblast, RASFs, 48 hrs
Description: A 384-well format ELISA for measurement of MMP1 is developed. Various primary antibodies are tested, as well as various ELISA protocols. The following protocol is developed and validated to measure MMP1 levels in SF supernatant in 384 well plates: white Lumitrac 600 384 well plates (Greiner) are coated with 2 μg/mL anti-MMP1 antibody MAB1346 (Chemicon). The antibody is diluted in buffer 40 (1.21 g Tris base (Sigma), 0.58 g NaCl (Calbiochem) and 5 ml 10% NaN3 (Sigma) in 1 L milliQ water and adjusted to pH 8.5). After overnight incubation at 4° C., plates are washed with PBS (80 g NaCl, 2 g KCl (Sigma), 11.5 g Na2HPO4.7H2O and 2 g KH2PO4 in 10 L milliQ; pH 7.4) and blocked with 100 μL/well Casein buffer (2% Casein (VWR International) in PBS). Next day, casein buffer is removed from ELISA plates and replaced by 50 μL/well EC buffer (4 g casein, 2.13 g Na2HPO4 (Sigma), 2 g bovine albumin (Sigma), 0.69 g NaH2PO4.H2O (Sigma), 0.5 g CHAPS (Roche), 23.3 g NaCl, 4 mL 0.5 M EDTA pH 8 (Invitrogen), 5 mL 10% NaN3 in 1 L milliQ and adjusted to pH 7.0). 0.25 mM DTT (Sigma) is added to the thawed samples plates. After removal of the EC buffer, 20 μL of sample is transferred to the ELISA plates. After overnight incubation at 4° C. plates are washed twice with PBS and once with PBST (PBS with 0.05% Tween-20 (Sigma)) and incubated with 35 μL/well biotinylated anti-MMP1 antibody solution (R&D). This secondary antibody is diluted in buffer C (0.82 g NaH2PO4.H2O, 4.82 g Na2HPO4, 46.6 g NaCl, 20 g bovine albumin and 4 mL 0.5M EDTA pH 8 in 2 L milliQ and adjusted to pH 7.0) at a concentration of 5 μg/mL. After 2 h of incubation at RT, plates are washed as described above and incubated with 50 μL/well streptavidin-HRP conjugate (Biosource). Streptavidin-HRP conjugate is diluted in buffer C at a concentration of 0.25 μg/mL. After 45 min, plates are washed as described above and incubated for 5 min with 50 μL/well BM Chem ELISA Substrate (Roche). Readout is performed on the Luminoscan Ascent Luminometer (Labsystems) with an integration time of 200 msec or with an Envision reader (Perkin Elmer).
The increase of MMP1 expression by SFs upon treatment with cytokines relevant in the field of RA (TNF-α, IL1β and OSM) or a combination thereof is shown in FIG. 2 as white bars. For this experiment, SFs are seeded in 96 well plates, 3,000 cells/well. 24 h later, the medium is changed to M199 medium supplemented with 1% FBS. One day after the medium change, cytokines or combinations thereof are added to the cultures, each cytokine being added to a final concentration of 25 ng/mL. 72 h after cytokine addition, the supernatant is collected and processed in the MMP1 ELISA as described in the protocol given above. In parallel with this experiment, SFs are triggered, using the same protocol, with the supernatant of THP1 cells (2-fold diluted in M199+1% FBS) treated with the same cytokines or combinations of cytokines for 48 h in M199 medium+1% FBS. The induction of the MMP1 expression by SFs triggered with the supernatants of TNF-α-treated THP1 cells is stronger (>4.5 fold induction) as compared to the SFs triggered with recombinant TNF-α alone (3-fold induction) and almost equals the 5-fold induction obtained by a mixture of 3 purified cytokines (TNF-α, IL1βb, OSM). […] As the role of TNF-α in the RA pathogenesis is validated (TNF-α-blockers such as Infliximab and Etanercept show some efficacy in the treatment of RA patients) and the THP-1 cells are representative for monocytes/macrophages present in the joint of RA patients, the TNF-α-based trigger mixture prepared by contacting THP-1 cells with TNF-α will contain factors present in the joints of RA patients and subsequently is relevant to RA. This TNF-α-based complex trigger, further referred to as the ‘complex trigger’, will further be used as basis for the ‘MMP assay’.
Dexamethasone is shown to dose-dependently reduce amounts of MMP1 produced by complex trigger activated SFs. […]

[2] = biological target: T1, MAPKAPK5 (Homo sapiens, UniProt Q8IW41); assay: MAPKAP-K5 assay (FlashPlate, 33P-ATP); format: biochemical; settings: 0.6 μM ATP, 30 minutes at room temperature
T1 construct: 1 mU MAPKAP-K5
T1 sequence (Q8IW41 1-473): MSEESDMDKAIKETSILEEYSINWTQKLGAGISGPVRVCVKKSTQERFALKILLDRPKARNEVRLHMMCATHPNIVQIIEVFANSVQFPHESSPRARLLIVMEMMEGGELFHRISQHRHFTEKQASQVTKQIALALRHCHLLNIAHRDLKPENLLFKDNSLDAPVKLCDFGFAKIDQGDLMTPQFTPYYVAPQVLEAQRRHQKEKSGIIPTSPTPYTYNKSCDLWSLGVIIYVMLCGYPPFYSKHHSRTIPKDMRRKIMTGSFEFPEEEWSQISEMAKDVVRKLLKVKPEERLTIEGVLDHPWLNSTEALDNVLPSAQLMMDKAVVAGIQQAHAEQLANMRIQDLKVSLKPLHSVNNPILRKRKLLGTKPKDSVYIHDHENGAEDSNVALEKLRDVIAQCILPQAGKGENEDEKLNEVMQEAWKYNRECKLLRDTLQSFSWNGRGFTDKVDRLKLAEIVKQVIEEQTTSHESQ
Description: 3 μM MAPKAP-K5 peptide substrate

SMILES | EC50 [1] [µM] | IC50 [2] [µM]
Cc1cc(-c2cnc(Nc3ccc(N4CCOCC4)cc3)c3nccn23)cc(=O)[nH]1 [Compound 174, 6-Methyl-4-[8-(4-morpholin-4-ylphenylamino)-imidazo[1,2-a]pyrazin-5-yl]-1H-pyridin-2-one] | 0.101 to 0.5 | > 1
CN1CCN(c2ccc(Nc3ncc(-c4cncc(C(N)=O)c4)n4ccnc34)cc2)CC1 [Compound 121, 5-{8-[4-(4-Methyl-piperazin-1-yl)-phenylamino]-imidazo[1,2-a]pyrazin-5-yl}-nicotinamide] | > 1 | > 1
NS(=O)(=O)c1ccc(-c2cnc(Nc3ccc(N4CCOCC4)cc3)c3nccn23)cc1 [Compound 29] | > 1 | > 1
NC(=O)CN1CCC(c2ccc(Nc3ncc(-c4cn[nH]c4)n4ccnc34)cc2)CC1 [Compound 224, 2-(4-{4-[5-(1H-Pyrazol-4-yl)imidazo[1,2-a]pyrazin-8-ylamino]phenyl}piperidin-1-yl)acetamide] | > 1 | 0.501 to 1
O=C(Cc1ccccc1)Nc1ccc(Nc2ncc(-c3cn[nH]c3)n3ccnc23)cn1 [Compound 200, 2-Phenyl-N-{5-[5-(1H-pyrazol-4-yl)imidazo[1,2-a]pyrazin-8-ylamino]pyridin-2-yl}acetamide] | 0.101 to 0.5 | > 1
CCN(CC)c1ccc(Nc2ncc(-c3cn[nH]c3)n3ccnc23)cc1 [Compound 9] | > 1 | 0.501 to 1
COc1cccc(Nc2ncc(-c3cn[nH]c3)n3ccnc23)c1 [Compound 16] | > 1 | > 1
NC(=O)c1ccc(-c2cnc(Nc3ccc(OCc4cccnc4)cc3)c3nccn23)cc1F [Compound 147] | 0.101 to 0.5 | > 1
CC(C)N1CCC(c2ccc(Nc3ncc(-c4ccc5c(c4)CNC5=O)n4ccnc34)cc2)CC1 [Compound 206, 5-{8-[4-(1-Isopropylpiperidin-4-yl)phenylamino]-imidazo[1,2-a]pyrazin-5-yl}-2,3-dihydroisoindol-1-one] | > 1 | 0.001 to 0.1
CCN(CC)CCNC(=O)c1ccc(Nc2ncc(-c3cncc4ccccc34)n3ccnc23)cc1 [Compound 77] | > 1 | > 1
Cc1cnc2c(Nc3ccc(N4CCOCC4)cc3)ncc(-c3cn[nH]c3)n12 [Compound 131, [3-Methyl-5-(1H-pyrazol-4-yl)imidazo[1,2-a]pyrazin-8-yl]-(4-morpholin-4-yl-phenyl)amine] | > 1 | > 1
NC(=O)c1cnc(Nc2ccc(N3CCOCC3)cc2)c2nccn12 [Compound 66] | > 1 | > 1
CC(C)N1CCN(c2ccc(Nc3ncc(-c4cc5c(o4)CNC5=O)n4ccnc34)cc2)CC1 [Compound 222] | 0.501 to 1 | 0.101 to 0.5
FC(F)(F)CN1CCC(c2ccc(Nc3ncc(-c4cn[nH]c4)n4ccnc34)cc2)CC1 [Compound 196] | > 1 | > 1
Nc1cc(C(=O)O)ccc1-c1cnc(Nc2ccc(N3CCOCC3)cc2)c2nccn12 [Compound 40] | > 1 | > 1
COc1cc(Nc2ncc(-c3csc(C(N)=O)c3)n3ccnc23)ccc1C(=O)NCc1ccc(C)nc1 [Compound 190, 4-(8-{3-Methoxy-4-[(6-methylpyridin-3-ylmethyl)carbamoyl]phenylamino}imidazo[1,2-a]pyrazin-5-yl)thiophene-2-carboxylic acid amide] | 0.101 to 0.5 | > 1
O=C(NCCc1c[nH]c2ccccc12)c1ccc(Nc2ncc(-c3cn[nH]c3)n3ccnc23)cc1 [Compound 94] | > 1 | 0.501 to 1

SMILES | EC50 [1] [µM] | IC50 [2] [µM]
CCc1cnc2c(Nc3ccc(N4CCOCC4)cc3)ncc(-c3ccc(C(N)=O)cc3)n12 [Compound 162, 4-[3-Ethyl-8-(4-morpholin-4-ylphenylamino)-imidazo[1,2-a]pyrazin-5-yl]benzamide] | 0.501 to 1 | > 1
CCN(CC)CCNC(=O)c1ccc(Nc2ncc(-c3cn[nH]c3)n3cc(C)nc23)cc1 [Compound 59] | > 1 | > 1
CC(=O)Nc1ccc(Nc2ncc(-c3cn[nH]c3)n3ccnc23)cc1 [Compound 31] | > 1 | 0.501 to 1
COC(=O)c1cccc(Nc2ncc(-c3cn[nH]c3)n3ccnc23)c1 [Compound 20] | > 1 | > 1
c1cncc(Nc2ncc(-c3cn[nH]c3)n3ccnc23)c1 [Compound 42] | > 1 | > 1
CCOc1cc(-c2cnc(Nc3ccc(N4CCOCC4)cc3)c3nccn23)ccn1 [Compound 107] | > 1 | > 1
CN1CCN(c2ccc(Nc3ncc(-c4ccc(C(=O)NC5CC5)cc4)n4ccnc34)cc2)CC1 [Compound 117] | > 1 | > 1
CC(C)N1CCN(c2ccc(Nc3ncc(-c4coc(C(N)=O)c4)n4ccnc34)cn2)CC1 [Compound 209, 4-{8-[6-(4-Isopropyl-piperazin-1-yl)-pyridin-3-ylamino]-imidazo[1,2-a]pyrazin-5-yl}-furan-2-carboxylic acid amide] | > 1 | 0.101 to 0.5
Fc1ccc(Nc2ncc(-c3cn[nH]c3)n3ccnc23)cc1Cl [Compound 17] | > 1 | > 1
O=C1NCc2cc(-c3cnc(Nc4ccc(N5CCOCC5)cn4)c4nccn34)ccc21 [Compound 211] | > 1 | 0.101 to 0.5
O=C(O)c1ccc(Nc2ncc(-c3cn[nH]c3)n3ccnc23)cc1 [Compound 23] | > 1 | > 1
CS(=O)(=O)c1ccc(Nc2ncc(-c3ccc(C(N)=O)cc3)n3ccnc23)cc1 [Compound 97, 4-[8-(4-Methanesulfonyl-phenylamino)-imidazo[1,2-a]pyrazin-5-yl]-benzamide] | > 1 | > 1
CCN(CCO)c1ccc(Nc2ncc(-c3cccc(N)c3)n3ccnc23)cc1 [Compound 7] | > 1 | > 1
CCN(CC)CCNC(=O)c1ccc(Nc2ncc(-c3cccnc3)n3ccnc23)cc1 [Compound 72] | > 1 | > 1
c1cn2c(-c3cn[nH]n3)cnc(Nc3ccc(N4CCOCC4)cc3)c2n1 [Compound 67] | > 1 | > 1
CN1CCN(C(=O)c2ccc(Nc3ncc(-c4cn[nH]c4)n4ccnc34)cc2)CC1 [Compound 57] | > 1 | 0.101 to 0.5
